Source: PubChem BioAssay AID1963972 (Molecular Pharmacology Branch, DTP, NCI, 2024)

System: 945468-187-T-J2-PDC spheroids viability
Test: Anticancer human tumor 945468-187-T-J2-PDC patient-derived rectal carcinoma cell line growth inhibition [PI3K]
Details: spheroids with HUVEC and MSC; for IC50: curve of first compound; for viability, T/C: stronger effect = lower value
Method in brief: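 Tumor cells grown as multi-cell spheroids with HUVEC endothelial cells and MSC fibroblast-like stroma were treated with targeted agents combined with inavolisib, alpelisib, duvelisib or copanlisib. Doses fell in half-log steps from near clinical Cmax, else from 10 microM. Viability was measured.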

[1] = second compound 0.00316 µM, first compound 0.0316 µM
[2] = second compound 0.00316 µM, first compound 0.1 µM
[3] = second compound 0.00316 µM, first compound 0.316 µM
[4] = second compound 0.00316 µM, first compound 1 µM
[5] = second compound 0.00316 µM, first compound 3.16 µM
[6] = second compound 0.00316 µM, first compound 10 µM
[7] = second compound 0.01 µM, first compound 0.0316 µM
[8] = second compound 0.01 µM, first compound 0.1 µM
[9] = second compound 0.01 µM, first compound 0.316 µM
[10] = second compound 0.01 µM, first compound 1 µM
[11] = second compound 0.01 µM, first compound 3.16 µM
[12] = second compound 0.01 µM, first compound 10 µM
[13] = second compound 0.0316 µM, first compound 0.0316 µM
[14] = second compound 0.0316 µM, first compound 0.1 µM
[15] = second compound 0.0316 µM, first compound 0.316 µM
[16] = second compound 0.0316 µM, first compound 1 µM
[17] = second compound 0.0316 µM, first compound 3.16 µM
[18] = second compound 0.0316 µM, first compound 10 µM
[19] = second compound 0.1 µM, first compound 0.0316 µM
[20] = second compound 0.1 µM, first compound 0.1 µM
[21] = second compound 0.1 µM, first compound 0.316 µM
[22] = second compound 0.1 µM, first compound 1 µM
[23] = second compound 0.1 µM, first compound 3.16 µM
[24] = second compound 0.1 µM, first compound 10 µM
[25] = second compound 0.316 µM, first compound 0.0316 µM
[26] = second compound 0.316 µM, first compound 0.1 µM
[27] = second compound 0.316 µM, first compound 0.316 µM
[28] = second compound 0.316 µM, first compound 1 µM
[29] = second compound 0.316 µM, first compound 3.16 µM
[30] = second compound 0.316 µM, first compound 10 µM
[31] = second compound 1 µM, first compound 0.0316 µM
[32] = second compound 1 µM, first compound 0.1 µM
[33] = second compound 1 µM, first compound 0.316 µM
[34] = second compound 1 µM, first compound 1 µM
[35] = second compound 1 µM, first compound 3.16 µM
[36] = second compound 1 µM, first compound 10 µM
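Note: spheroids exposed to compounds for seven days before reading.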

CC1(C)CCC(CN2CCN(c3ccc(C(=O)NS(=O)(=O)c4ccc(NCC5CCOCC5)c([N+](=O)[O-])c4)c(Oc4cnc5[nH]ccc5c4)c3)CC2)=C(c2ccc(Cl)cc2)C1 + CC(Nc1ccc2c(c1)OCCn1cc(N3C(=O)OCC3C(F)F)nc1-2)C(N)=O
IC50 (second compound 0.00316 µM): 7.88 µM | IC50 (second compound 0.01 µM): > 10 µM | IC50 (second compound 0.0316 µM): 7.6 µM | IC50 (second compound 0.1 µM): 7.73 µM | IC50 (second compound 0.316 µM): 6.74 µM | IC50 (second compound 1 µM): > 10 µM | viability, T/C [1]: 113% | viability, T/C [2]: 100% | viability, T/C [3]: 96.6% | viability, T/C [4]: 118% | viability, T/C [5]: 93.2% | viability, T/C [6]: 38.8% | viability, T/C [7]: 94.2% | viability, T/C [8]: 104% | viability, T/C [9]: 118% | viability, T/C [10]: 98.3% | viability, T/C [11]: 89.4% | viability, T/C [12]: 51.7% | viability, T/C [13]: 96.1% | viability, T/C [14]: 113% | viability, T/C [15]: 95.3% | viability, T/C [16]: 88.9% | viability, T/C [17]: 101% | viability, T/C [18]: 34.6% | viability, T/C [19]: 98.9% | viability, T/C [20]: 92.2% | viability, T/C [21]: 92.4% | viability, T/C [22]: 92.5% | viability, T/C [23]: 98.6% | viability, T/C [24]: 37.1% | viability, T/C [25]: 88.1% | viability, T/C [26]: 89% | viability, T/C [27]: 84.3% | viability, T/C [28]: 89.6% | viability, T/C [29]: 83.1% | viability, T/C [30]: 32.7% | viability, T/C [31]: 69.2% | viability, T/C [32]: 81.7% | viability, T/C [33]: 94.8% | viability, T/C [34]: 66% | viability, T/C [35]: 77.8% | viability, T/C [36]: 52.3%

C[C@@H](NC(=O)c1ncnc(N)c1Cl)c1ncc(C(=O)Nc2cc(C(F)(F)F)c(Cl)cn2)s1 + CC(Nc1ccc2c(c1)OCCn1cc(N3C(=O)OCC3C(F)F)nc1-2)C(N)=O
IC50 (second compound 0.00316 µM): > 10 µM | IC50 (second compound 0.01 µM): > 10 µM | IC50 (second compound 0.0316 µM): > 10 µM | IC50 (second compound 0.1 µM): > 10 µM | IC50 (second compound 0.316 µM): > 10 µM | IC50 (second compound 1 µM): > 10 µM | viability, T/C [1]: 94.6% | viability, T/C [2]: 117% | viability, T/C [3]: 127% | viability, T/C [4]: 75.7% | viability, T/C [5]: 136% | viability, T/C [6]: 96.7% | viability, T/C [7]: 99.2% | viability, T/C [8]: 71.4% | viability, T/C [9]: 115% | viability, T/C [10]: 87.5% | viability, T/C [11]: 98.3% | viability, T/C [12]: 108% | viability, T/C [13]: 84.9% | viability, T/C [14]: 104% | viability, T/C [15]: 115% | viability, T/C [16]: 103% | viability, T/C [17]: 112% | viability, T/C [18]: 90.3% | viability, T/C [19]: 105% | viability, T/C [20]: 112% | viability, T/C [21]: 104% | viability, T/C [22]: 96.8% | viability, T/C [23]: 97.7% | viability, T/C [24]: 93% | viability, T/C [25]: 72.5% | viability, T/C [26]: 103% | viability, T/C [27]: 105% | viability, T/C [28]: 88.2% | viability, T/C [29]: 86.7% | viability, T/C [30]: 97.2% | viability, T/C [31]: 68.7% | viability, T/C [32]: 73.4% | viability, T/C [33]: 67.5% | viability, T/C [34]: 79.3% | viability, T/C [35]: 94.4% | viability, T/C [36]: 83.9%
